In publication PMC9611048, “Rapid Simultaneous Determination of Three Synthetic Cannabinoids in Urine and Plasma of Rats Using Ultra-High Performance Liquid Chromatography Tandem Mass Spectrometry” (Toxics, 2022):

Experiments:
[1] = Determination of synthetic cannabinoids in rat urine by LC-MS/MS after dosing; type: in vivo; conditions: for concentration at 2 h / concentration at 4 h / concentration at 8 h / concentration at 24 h / concentration at 48 h / concentration at 72 h: male, Sprague-Dawley, intravenous; for detection window: rat, the dose for the tail vein was 1 mg/kg
Method: (§1) The Sprague–Dawley male rats (n = 12, 6 weeks, weighing 190–210 g) were obtained from Zhejiang Academy of Medical Sciences (Hangzhou, Zhejiang, China) and acclimatized for 1 week before exposure in the experimental room (temperature 23 ± 2 ℃, humidity 55 ± 10%, 12 h light–dark cycle). After 1-week adaptation, rats were fasted for 16 h before […]. The rats were randomly allocated to 3 groups, the JWH-122, 5F-AMB, and AMB-PUBINACA group, while the doses were all 1 mg/kg bw/day by tail vein injection. The urine samples were collected at 2 h, 4 h, 8 h, and 24 h during the initial 24 h and every 24 h during the next 48 h. The blood samples were collected from the abdominal aorta. Finally, urine samples and blood samples were obtained from each rat and stored at −80 °C. All the above animal experimental procedures were approved by the Zhejiang Center of Laboratory Animals Welfare and Ethical Review Committee (Approval ID: ZJCLA-IACUC-20100005; Hangzhou, China).
(§2) In this experiment, extraction conditions of three synthetic cannabinoids in rat plasma and urine were optimized, and the detailed parameters are shown in Table 1. Briefly, 100 μL of plasma sample was transferred into a centrifuge tube with 100 μL of acetonitrile and 500 μL of methanol and then vortexed for 6 min. Finally, the supernatant was centrifuged at 12,000 rpm for 10 min then filtered through a 0.22 μm cellulose filter. Solid phase extraction (SPE) is a common pretreatment method for the synthesis of cannabinoids in urine. The urine sample was extracted by SPE. The SPE cartridges were conditioned with 3 mL of methanol followed by 6 mL of water. Amounts of 1.6 mL of acetonitrile and water were added to 400 µL of urine, mixed uniform. After sample loading, the cartridges were respectively washed with 3 mL of 5% methanol, discard wash. The extract was eluted via 4 mL of methanol and evaporated to dryness under a stream of nitrogen at 40 ℃.
The AB SCIEX ExionLCTM0AD XR high-performance liquid chromatograph system coupled with the SCIEX QTRAP 6500^+ triple quadrupole/linear ion trap mass spectrometer system (AB SCIEX, Milford, MA, USA) was used for analysis. Chromatographic separation was carried out using a Waters UPLC HSS T3 (150 × 2.1 mm, 1.8 μm) column at 40 °C;. Injection volume was 1 μL. The mobile phase comprised 0.1% formic acid in water (A) and acetonitrile (B) at a flow rate of 0.3 mL/min. Gradient conditions were set as follows: 10% B (1 min), to 100% B (in 6 min), hold 100% B (4 min), to 10% B (in 0.1 min), and hold (1.9 min).
The separated analytes were quantified using an AB SCIEX 6500^+ quadrupole ion trap mass spectrometer (QTRAP MS) under the multiple reaction monitoring (MRM) mode with […] ion channels (Table 2). The mass spectrometry parameters were set as follows: curtain gas, 35 psi; collision gas, medium; ion spray voltage, 5500 V; source temperature, 550 ℃; nebulizing gas, 50 psi; heater gas, 50 psi. The HPLC-QTRAP-MS data were converted to SCIEX OS 1.4.0.18067 (SCIEX, Toronto, QUE, CA) for qualitative and quantitative analysis.

[2] = Determination of synthetic cannabinoids in rat plasma by LC-MS/MS after dosing; type: in vivo; conditions: 1 mg/kg tail vein injection; for concentration at 72 h: male, Sprague-Dawley, intravenous
Method: as §1
as §2, with “After sample loading, the cartridges were respectively washed with 3 mL of 5% methanol, discard wash. The extract was eluted via 4 mL of methanol and evaporated to dryness under a stream of nitrogen at 40 ℃.” left out
The separated analytes were quantified using an AB SCIEX 6500^+ quadrupole ion trap mass spectrometer (QTRAP MS) under the multiple reaction monitoring (MRM) mode with negative ion channels (Table 2). […] The HPLC-QTRAP-MS data were converted to SCIEX OS 1.4.0.18067 (SCIEX, Toronto, QUE, CA) for qualitative and quantitative analysis.

[3] = rat urine, 1 mg/kg tail vein injection
[4] = rat urine, 72 h, 1 mg/kg tail vein injection

| SMILES | concentration at 2 h [1, 3] | concentration at 4 h [1, 3] | concentration at 8 h [1, 3] | concentration at 24 h [1, 3] | concentration at 48 h [1, 3] | concentration at 72 h [1, 4] | detection window [1] | Plasma Concentration 72 h [2] | Urine Concentration 72 h [1, 4] | concentration at 72 h [2] |
| --- | --- | --- | --- | --- | --- | --- | --- | --- | --- | --- |
| COC(=O)[C@@H](NC(=O)c1nn(CCCCCF)c2ccccc12)C(C)C [5F-AMB, methyl (1-(5-fluoropentyl)-1H-indazole-3-carbonyl)-L-valinate] | 8.68 ng/mL | 1.11 ng/mL | 0.72 ng/mL | 0.14 ng/mL | 0.03 ng/mL | 0.01 ng/mL | 2 to 3 days | not detected |  |  |
| COC(=O)C(NC(=O)c1nn(Cc2ccc(F)cc2)c2ccccc12)C(C)C (stereo not drawn) [AMB-FUBINACA, methyl 2-(1-(4-fluorobenzyl)-1Hindazole-3-carboxamido)-3-methylbutanoate] | 3.38 ng/mL | 0.41 ng/mL | 0.19 ng/mL | 0.1 ng/mL | 0.03 ng/mL |  | 2 to 3 days |  | not detected | 0.05 ng/mL |
| CCCCCn1cc(C(=O)c2ccc(C)c3ccccc23)c2ccccc21 [JWH-122, 4-methylnaphthalen-1-yl-(1-pentylindol-3-yl) methanone] | 0.2 ng/mL | 0.12 ng/mL | 0.09 ng/mL | 0.06 ng/mL | 0.02 ng/mL | 0.01 ng/mL | 2 to 3 days |  |  | 0.08 ng/mL |
